In brackets after ≈: the same amount, converted by molar mass.
Tests used:
[1] = SUPPLEMENTARY: Lyophilisation Solubility Assay (LYSA); type: physicochemical; conditions: read-out: Kinetic_solubility
[2] = biological target: T1, Carnitine O-palmitoyltransferase 1, liver isoform (Homo sapiens, UniProt P50416); assay: (§1) SUPPLEMENTARY: Inhibition of Carnitine palmitoyltransferase 1, liver isoform
T1 sequence (P50416 whole entry): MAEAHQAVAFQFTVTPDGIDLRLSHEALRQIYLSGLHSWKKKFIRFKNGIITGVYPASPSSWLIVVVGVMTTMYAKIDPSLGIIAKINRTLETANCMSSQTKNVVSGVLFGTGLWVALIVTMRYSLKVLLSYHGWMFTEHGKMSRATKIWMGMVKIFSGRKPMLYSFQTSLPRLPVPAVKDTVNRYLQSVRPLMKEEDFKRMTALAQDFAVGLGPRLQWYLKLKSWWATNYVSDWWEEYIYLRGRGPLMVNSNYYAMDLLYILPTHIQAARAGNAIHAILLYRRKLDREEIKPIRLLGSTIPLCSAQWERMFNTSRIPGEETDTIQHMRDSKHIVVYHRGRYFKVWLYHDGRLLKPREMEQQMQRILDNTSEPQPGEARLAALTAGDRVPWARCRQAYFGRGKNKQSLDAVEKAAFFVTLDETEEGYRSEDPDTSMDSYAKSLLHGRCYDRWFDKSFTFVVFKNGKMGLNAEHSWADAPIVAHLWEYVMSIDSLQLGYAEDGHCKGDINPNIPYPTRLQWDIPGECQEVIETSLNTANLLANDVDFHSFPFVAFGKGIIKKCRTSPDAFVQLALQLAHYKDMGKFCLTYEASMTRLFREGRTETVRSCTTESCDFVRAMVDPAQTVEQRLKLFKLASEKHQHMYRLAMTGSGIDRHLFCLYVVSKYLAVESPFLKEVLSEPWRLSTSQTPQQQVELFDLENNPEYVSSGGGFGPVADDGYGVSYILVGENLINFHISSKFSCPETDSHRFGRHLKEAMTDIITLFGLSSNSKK

[3] = biological target: T2, Carnitine O-palmitoyltransferase 1, liver isoform (Rattus norvegicus, UniProt P32198); assay: as §1
T2 sequence (P32198 whole entry): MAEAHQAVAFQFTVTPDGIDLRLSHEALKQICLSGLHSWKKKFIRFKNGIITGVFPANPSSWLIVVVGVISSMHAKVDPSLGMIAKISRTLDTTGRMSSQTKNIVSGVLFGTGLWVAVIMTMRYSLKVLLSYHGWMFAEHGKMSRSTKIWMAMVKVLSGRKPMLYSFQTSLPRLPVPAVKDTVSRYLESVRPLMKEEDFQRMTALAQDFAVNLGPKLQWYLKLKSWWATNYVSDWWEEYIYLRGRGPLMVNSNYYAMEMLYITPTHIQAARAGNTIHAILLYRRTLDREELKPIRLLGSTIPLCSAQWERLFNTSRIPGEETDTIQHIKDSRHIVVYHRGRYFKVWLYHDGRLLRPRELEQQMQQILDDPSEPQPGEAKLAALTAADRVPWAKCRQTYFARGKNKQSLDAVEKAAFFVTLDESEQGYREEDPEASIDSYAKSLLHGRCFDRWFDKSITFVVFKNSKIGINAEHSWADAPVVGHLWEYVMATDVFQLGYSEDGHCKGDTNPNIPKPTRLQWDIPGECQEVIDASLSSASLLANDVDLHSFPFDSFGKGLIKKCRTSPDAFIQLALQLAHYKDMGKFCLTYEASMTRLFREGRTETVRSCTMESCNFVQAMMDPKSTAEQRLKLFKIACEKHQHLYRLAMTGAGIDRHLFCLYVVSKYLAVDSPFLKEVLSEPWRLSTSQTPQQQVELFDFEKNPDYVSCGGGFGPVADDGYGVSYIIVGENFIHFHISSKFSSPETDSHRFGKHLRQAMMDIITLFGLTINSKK

[4] = SUPPLEMENTARY: PAMPA permeability assay; type: physicochemical; conditions: read-out: Permeability
[5] = biological target: T3, Carnitine O-palmitoyltransferase 2, mitochondrial (Homo sapiens, UniProt P23786); assay: (§2) SUPPLEMENTARY: Inhibition of Carnitine palmitoyltransferase 2
T3 sequence (P23786 whole entry): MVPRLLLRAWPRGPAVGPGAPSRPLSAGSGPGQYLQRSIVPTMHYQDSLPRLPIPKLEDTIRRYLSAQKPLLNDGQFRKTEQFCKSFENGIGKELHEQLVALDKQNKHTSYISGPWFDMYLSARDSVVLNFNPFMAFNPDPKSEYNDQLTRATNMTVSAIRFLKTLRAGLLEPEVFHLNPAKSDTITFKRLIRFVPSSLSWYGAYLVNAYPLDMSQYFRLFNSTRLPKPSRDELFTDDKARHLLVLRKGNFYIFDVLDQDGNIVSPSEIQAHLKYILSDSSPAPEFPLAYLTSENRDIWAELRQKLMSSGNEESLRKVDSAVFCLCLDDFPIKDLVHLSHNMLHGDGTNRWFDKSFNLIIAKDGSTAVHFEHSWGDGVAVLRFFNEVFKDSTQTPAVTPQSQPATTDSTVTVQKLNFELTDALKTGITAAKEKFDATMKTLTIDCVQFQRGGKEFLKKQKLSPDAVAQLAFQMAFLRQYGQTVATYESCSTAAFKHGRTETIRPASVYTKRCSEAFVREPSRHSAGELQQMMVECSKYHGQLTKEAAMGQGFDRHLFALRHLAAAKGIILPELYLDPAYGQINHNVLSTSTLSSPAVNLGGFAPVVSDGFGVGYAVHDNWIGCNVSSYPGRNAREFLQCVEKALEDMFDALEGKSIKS

[6] = biological target: T4, Carnitine O-palmitoyltransferase 2, mitochondrial (Rattus norvegicus, UniProt P18886); assay: as §2
T4 sequence (P18886 whole entry): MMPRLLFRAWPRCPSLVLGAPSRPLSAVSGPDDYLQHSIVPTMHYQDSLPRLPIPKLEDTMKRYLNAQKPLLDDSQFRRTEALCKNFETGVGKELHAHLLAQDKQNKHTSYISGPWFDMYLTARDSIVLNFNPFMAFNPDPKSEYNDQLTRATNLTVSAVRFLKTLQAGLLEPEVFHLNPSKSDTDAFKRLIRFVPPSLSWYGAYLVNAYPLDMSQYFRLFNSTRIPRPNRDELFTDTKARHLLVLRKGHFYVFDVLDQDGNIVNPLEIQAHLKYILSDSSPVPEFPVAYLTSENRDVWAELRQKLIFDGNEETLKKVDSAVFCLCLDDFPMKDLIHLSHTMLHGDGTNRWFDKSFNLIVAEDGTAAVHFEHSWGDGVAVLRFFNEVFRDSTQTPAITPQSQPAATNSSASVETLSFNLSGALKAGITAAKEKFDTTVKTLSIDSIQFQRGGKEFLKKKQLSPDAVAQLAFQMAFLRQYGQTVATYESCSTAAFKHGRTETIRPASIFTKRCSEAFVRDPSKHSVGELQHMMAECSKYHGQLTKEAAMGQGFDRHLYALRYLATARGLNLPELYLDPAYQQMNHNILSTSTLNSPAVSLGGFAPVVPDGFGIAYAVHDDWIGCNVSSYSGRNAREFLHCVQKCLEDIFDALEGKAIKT

[7] = biological target: T5, Carnitine O-palmitoyltransferase 1, muscle isoform (Homo sapiens, UniProt Q92523); assay: SUPPLEMENTARY: Inhibition of Carnitine palmitoyltransferase 1, muscle isoform; design: species or system Muscle tissue
T5 sequence (Q92523 whole entry): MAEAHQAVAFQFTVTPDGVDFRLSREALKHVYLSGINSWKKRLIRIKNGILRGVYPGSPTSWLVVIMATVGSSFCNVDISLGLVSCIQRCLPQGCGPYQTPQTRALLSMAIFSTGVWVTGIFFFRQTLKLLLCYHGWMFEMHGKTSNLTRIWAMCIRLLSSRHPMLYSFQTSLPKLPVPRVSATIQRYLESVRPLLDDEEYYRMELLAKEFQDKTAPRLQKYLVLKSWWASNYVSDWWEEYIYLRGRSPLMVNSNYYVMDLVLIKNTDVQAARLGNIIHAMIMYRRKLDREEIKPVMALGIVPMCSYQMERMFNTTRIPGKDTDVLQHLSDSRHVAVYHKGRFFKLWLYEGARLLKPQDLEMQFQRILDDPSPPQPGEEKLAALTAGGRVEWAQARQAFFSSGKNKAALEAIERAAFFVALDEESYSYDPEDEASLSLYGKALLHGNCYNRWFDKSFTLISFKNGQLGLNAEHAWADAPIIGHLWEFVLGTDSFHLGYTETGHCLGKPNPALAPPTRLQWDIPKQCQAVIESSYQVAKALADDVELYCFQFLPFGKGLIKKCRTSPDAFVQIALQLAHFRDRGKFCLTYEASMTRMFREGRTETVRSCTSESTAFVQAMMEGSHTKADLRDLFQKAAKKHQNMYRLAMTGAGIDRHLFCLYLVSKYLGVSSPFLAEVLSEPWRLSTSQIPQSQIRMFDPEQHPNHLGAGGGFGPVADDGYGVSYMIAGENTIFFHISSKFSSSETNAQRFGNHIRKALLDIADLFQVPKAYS

[8] = SUPPLEMENTARY: Lipophilicity (log D) Determination by high-throughput shake-flask; type: physicochemical; conditions: octanol/water

Compound	solubility kinetic [1] [µg/mL]	IC50 [2] [nM]	IC50 [3] [nM]	Papp [4] [×10⁻⁶ cm/s]	IC50 [5] [nM]	IC50 [6] [nM]	IC50 [7] [nM]	logD [8]
O=C(COc1ccccc1)N1CCCC[C@@H]1c1nc(-c2ccc3[nH]c(=O)[nH]c3c2)no1	44 (≈ 105 µM)	35.4	475	2.43	69400	15000	13200	2.51
NC(=O)c1ccc(-c2noc([C@H]3CCCCN3C(=O)COc3ccccc3)n2)cc1	52 (≈ 128 µM)	34.2	255	5.08	39700	37700	> 100000	2.66
COc1ccc(Cl)cc1S(=O)(=O)c1cn(CCCO)c2ccc(C(=O)Nc3ccccc3)cc12	< 1	45	10.1	0.06	> 100000	> 100000	> 100000	3.62
COc1ccc(Cl)cc1S(=O)(=O)N[C@@H]1CCCN(C(=O)COc2ccccc2)C1	64 (≈ 146 µM)	134	95.4	1.36	21000	> 100000	51800	2.59
Cc1cc(C)cc(S(=O)(=O)N2CCOc3ccc(C(=O)Nc4nc(CC(=O)O)cs4)cc32)c1	> 615	42.4	31.9	3.17	> 100000	> 100000	797	0.5
COc1ccc(Cl)cc1S(=O)(=O)N1C[C@H](C)c2ccc(C(=O)Nc3ccc(C(=O)O)cc3)cc21	3 (≈ 5.99 µM)	75.7	79.1	2.83	698	2130	1420	3.01
O=C(O)c1ccc(NC(=O)c2ccc3c(c2)N(S(=O)(=O)c2cccc(Cl)c2)CCS3(=O)=O)cc1	> 626	54.2	39.5	0.86	5440	20800	15500	0.25
O=C(COc1ccccc1)N1CCCC[C@@H]1c1noc(-c2cccc3[nH][nH]c(=O)c23)n1	46 (≈ 110 µM)	99.8	93.1	6.44	6260	7630	7620	2.53
O=C1Nc2ccc(-c3noc([C@H]4CCCCN4C(=O)COc4ccccc4)n3)cc2CO1	8 (≈ 18.4 µM)	98.2	154	3.59	4740	> 100000	> 100000	2.89
COc1ccc(Cl)cc1S(=O)(=O)Nc1cc(C(=O)Nc2ccc(C(=O)O)cc2)cc(OC)c1OC	> 598	43.6	253	1.57	3030	1070	> 100000	0.56
CS(=O)(=O)c1cccc(-c2nc([C@H]3CCCCN3C(=O)COc3ccccc3)no2)c1	18 (≈ 40.8 µM)	206	125	2.96	22300	> 100000	> 100000	2.39
NC(=O)c1cccc(-c2n[nH]c([C@H]3CCCCN3C(=O)COc3ccccc3)n2)c1	161 (≈ 397 µM)	93.1	563	2.25	> 100000	> 100000	> 100000	2.16
COc1ccc(Cl)cc1S(=O)(=O)N1CCOc2ccc(C(=O)Nc3ccccc3)cc21	< 1	40.8	84.5	1.26	> 100000	> 100000	> 100000	> 3
O=C(COc1ccccc1)N1CCCC[C@@H]1c1noc(-c2ccc3cccnc3n2)n1	31.5 (≈ 75.8 µM)	129	153	5.43	21400	> 100000	> 100000	2.35

From ChEMBL document CHEMBL3431459, “Roche carnitine palmitoyltransferase modulator screening data (supplementary data associated with the publication CHEMBL2216752)”
